Patent US20250235444A1, “COMPOSITION FOR PREVENTING OR TREATING VALVULAR CALCIFICATION” (MOKPO NATIONAL UNIVERSITY INDUSTRY-ACADEMIA COOPERATION …, priority 2022, published 2025)

Assays:
[1] = system: porcine valvular interstitial cells; experiment: Calcification of porcine valvular interstitial cells induced by NaH2PO4 (PCM), Alizarin red staining and CPC analysis; assay type: cell-based; details: pro-calcifying medium with 2 mM NaH2PO4, 10 days
Method: (§1) To isolate porcine valvular interstitial cells, porcine heart valves were treated with collagenase for 15 minutes, after which endothelial cells were removed and cultured again for 24 hours. The cells obtained through centrifugation are valvular interstitial cells and were cultured in DMEM (high-glucose, Gibco) medium containing 0.1% amphotericin B, 1% penicillin-streptomycin, and 5% FBS.
To induce calcification, cells were seeded at a density of 1×10^4/ml in a 96-well culture vessel, and calcification was induced for a total of 10 days. […]
To quantify Alizarin Red stain, after washing twice with PBS, it was fixed with cold 70% ethanol at 4° C. for 1 hour, and after washing with dH2O, the sample was treated with 10% CPC (cetylpyridinium chloride, Sigma-Aldrich) for 1 hour (shaken and in the dark), transferred to a new measuring container, and measured for absorbance at 550 nm.
Interstitial cells were isolated from porcine heart valves and the inhibitory effect of paquinimod or tasquinimod on valvular calcification was confirmed according to the concentration. Porcine valve-derived cells were induced to calcify by NaH2PO4, and the degree of valvular calcification was measured after treatment with paquinimod or tasquinimod at different concentrations under the same conditions.

[2] = system: RUNX2 (Runt-related transcription factor2); experiment: Western blot analysis of calcification marker RUNX2 in calcification-induced valvular interstitial cells; assay type: cell-based, porcine; details: compared to the calcification-induced experimental group; calcification induced for 10 days; FIG. 3
Method: as §1
(§2) To induce calcification, cells were seeded at a density of 1×10^4/ml in a 96-well culture vessel, and calcification was induced for a total of 10 days. Control medium (CM) used DMEM containing 0.1% amphotericin B, 1% penicillin-streptomycin, and 5% FBS and the pro-calcifying medium (PCM) was a control medium with 2 mM NaH2PO4 added. The medium was replaced every 2 days.
(§3) To observe if anti-calcification substances inhibit calcification, 10 uM or 100 uM paquinimod or 10 uM tasquinimod were treated, and 10% DMSO (Sigma-Aldrich) was treated as a control, and then cultured in a cell incubator at 37° C. with a 5% CO2 concentration.
(§4) After seeding cells at 5×10^4/mL in a 6-well plate, calcification was induced for a total of 10 days. […]
(§5) To lyse the cells, 1×RIPA buffer was added to each well and lysed for 10 minutes. […] Protein quantification of the obtained cell lysates was measured using Bio-Rad DC protein reagent. […]

Osteopontin (OPN) = experiment: Western blot analysis of calcification marker osteopontin in calcification-induced valvular interstitial cells; assay type: cell-based, porcine; details: compared to the calcification-induced experimental group; calcification induced for 10 days; FIG. 3
Method: as §1, §2, §3, §4, §5

Row | Structure (SMILES) | degree of valvular calcification (Alizarin red staining and CPC analysis) ([1]; 10 uM or more of paquinimod (10 uM or 100 uM), FIG. 1) | expression of RUNX2 (Western blot) [2] | expression of osteopontin (Western blot) (Osteopontin (OPN)) | degree of valvular calcification ([1]; 10 uM tasquinimod, FIG. 2)
1 | CCc1cccc2c1c(O)c(C(=O)N(CC)c1ccccc1)c(=O)n2C [paquinimod] | inhibition of valvular calcification in a concentration-dependent manner | significantly reduced | significantly reduced | 
2 | COc1cccc2c1c(O)c(C(=O)N(C)c1ccc(C(F)(F)F)cc1)c(=O)n2C [tasquinimod] |  |  |  | had an inhibitory effect on valvular calcification
